From PMC6916333, “A lysin motif effector subverts chitin‐triggered immunity to facilitate arbuscular mycorrhizal symbiosis” (The New Phytologist, 2019)
Read-outs that look alike come from different tables or passages of the source.

Target: T1, RiSLM (Rhizophagus irregularis, UniProt U9TZV5)
T1 construct: gene GLOIN_2v1561425; without signal peptide; single LysM domain; expressed in E. coli ORIGAMI from pET-SUMO, SUMO tag removed by ULP-1; c; 7 kDa (faint 14 and 21 kDa bands, possible oligomers); NT.115 RED dye label
T1 sequence (U9TZV5 entry or part of it): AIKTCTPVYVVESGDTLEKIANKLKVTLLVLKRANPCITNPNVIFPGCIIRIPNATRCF
Experiment: microscale thermophoresis
Assay type: binding
Settings: dye-labelled protein 20 nM

[1] = 50 mM Tris pH 7.4, 10 mM MgCl2, 150 mM NaCl, 0.05% Tween 20, 22 °C

In the case of CC(=O)N[C@H]1[C@H](O[C@H]2[C@H](O)[C@@H](NC(C)=O)C(O)O[C@@H]2CO)O[C@H](CO)[C@@H](O[C@@H]2O[C@H](CO)[C@@H](O[C@@H]3O[C@H](CO)[C@@H](O)[C@H](O)[C@H]3NC(C)=O)[C@H](O)[C@H]2NC(C)=O)[C@@H]1O (some centres unmarked) [CO4, chitotetraose], the Kd [1] is reported as 37.1 ± 1.4 µM.
With CC(=O)N[C@H]1[C@H](O[C@H]2[C@H](O)[C@@H](NC(C)=O)[C@H](O[C@H]3[C@H](O)[C@@H](NC(C)=O)C(O)O[C@@H]3CO)O[C@@H]2CO)O[C@H](CO)[C@@H](O[C@@H]2O[C@H](CO)[C@@H](O[C@@H]3O[C@H](CO)[C@@H](O)[C@H](O)[C@H]3NC(C)=O)[C@H](O)[C@H]2NC(C)=O)[C@@H]1O (some centres unmarked) [CO5] the Kd [1] was 59.4 ± 2.1 µM.
CC(=O)N[C@H]1[C@H](O[C@H]2[C@H](O)[C@@H](NC(C)=O)[C@H](O[C@H]3[C@H](O)[C@@H](NC(C)=O)[C@H](O[C@H]4[C@H](O)[C@@H](NC(C)=O)C(O)O[C@@H]4CO)O[C@@H]3CO)O[C@@H]2CO)O[C@H](CO)[C@@H](O[C@@H]2O[C@H](CO)[C@@H](O[C@@H]3O[C@H](CO)[C@@H](O[C@@H]4O[C@H](CO)[C@@H](O)[C@H](O)[C@H]4NC(C)=O)[C@H](O)[C@H]3NC(C)=O)[C@H](O)[C@H]2NC(C)=O)[C@@H]1O (some centres unmarked) [CO7, chitoheptaose] was tested, and the Kd [1] was 8.8 ± 1.2 µM.
LCO-IV(C18:1) was tested, and the Kd (25 mM sodium cacodylate pH 6.0, 1 mM MgCl2, 1 mM CaCl2, 250 mM sucrose, 0.175% Fos-choline-10, 0.5% ethanol, 22 °C, single binding event, read-out: K d) was roughly 0.24 µM.
In the case of LCO-IV(C18:1, S), the Kd (25 mM sodium cacodylate pH 6.0, 1 mM MgCl2, 1 mM CaCl2, 250 mM sucrose, 0.175% Fos-choline-10, 0.5% ethanol, 22 °C, first (high-affinity) of two binding events, read-out: K d) is reported as roughly 0.015 µM.
